Patent publication US10420836B2, “Methods of immunizing a subject and compositions related thereto” (priority 2015, dated 2019)
Like-named read-outs stand apart in the source and are kept apart here.

Columns and labels:
[1] = tested on: A/Victoria/210/2009 subunit influenza vaccine; assay type: in vivo, mice; conditions: after intradermal vaccination with A/Victoria/210/2009 plus adjuvant
[2] = tested on: influenza virus A/Udorn/1972 (H3N2); assay type: in vivo, mice; conditions: for survival: adjuvant co-administered intradermally with 1 μg HA A/Victoria/210/2009 subunit vaccine; for body weight loss after challenge / signs of disease after challenge: adjuvant with vaccine; for body weight loss after challenge: compared to the other vaccinated groups; for protective immune responses / protective immunity to influenza: used as adjuvant for intradermal influenza vaccination
[3] = Observation for adverse effects after adjuvanted skin vaccination; assay type: in vivo; conditions: low doses used for skin vaccination; four months post-adjuvanted vaccination
Description: This modification may improve antigen presentation resulting in protective immunity. […] See Manoury. Proteases: essential actors in processing antigens and intracellular toll-like receptors. Frontiers in immunology 4, 299, (2013). Fullerene is considered as nanoparticle due to its structure that can recruit cells following skin immunization. The toxicity of fullerenes has been reported in Zhang et al., Endocytic mechanisms and toxicity of a functionalized fullerene in human cells. Toxicology letters 191, 149-157, (2009). […] Vaccine adjuvant and vaccine formulations of fullerene derivatives are reported in CN103495164.

[4] = tested on: caspase-1; assay: Preliminary cell-signaling data (inflammasome / caspase-1 activation)
[5] = tested on: primary human keratinocytes; assay type: cell-based; conditions: primary human keratinocytes (unpublished)

| Compound | Serum IgG2a [1] | survival ([2]; 4×LD50 A/Udorn/1972 challenge) [%] | body weight loss after challenge [2] | protective immune responses / protective immunity to influenza [2] | survival ([2]; […]) [%] | adverse effects [3] | caspase-1 activation [4] | IL-1 beta and TNF-α production [5] | signs of disease after challenge [2] | survival rate ([2]; at three different doses tested (11.9, 119 and 1190 nanomoles) with vaccine, infection with A/Udorn 1972) [%] | longevity of immune responses ([2]; combined with vaccine, […]) |
| --- | --- | --- | --- | --- | --- | --- | --- | --- | --- | --- | --- |
| O=C(Nc1cc(C(F)(F)F)cc(C(F)(F)F)c1)c1cc(Cl)ccc1O [IMD 0354, N-(3,5-bis-trifluoromethyl-phenyl)-5-chloro-2-hydroxy-benzamide] | increased | 100 | minimal body weight loss | improved protective immunity to influenza | – | – | – | – | – | – | – |
| c12c3c4c5c1c1c6c7c2c2c8c3c3c9c4c4c%10c5c5c1c1c6c6c%11c7c2c2c7c8c3c3c8c9c4c4c9c%10c5c5c1c1c6c6c%11c2c2c7c3c3c8c4c4c9c5c1c1c6c2c3c41 [fullerene] | – | – | – | improved protective immune responses | 80 | no adverse effects | – | – | – | – | – |
| O=C1c2c(O)cccc2Cc2cccc(O)c21 [anthralin, 1,8-dihydroxy-9,10-dihydroanthracen-9-one] | – | 80 | – | induces protective immune responses | – | – | not activated | large amounts | fewer signs of disease | ≥ 80 | – |
| CC(C)Cn1cnc2c(N)nc3ccccc3c21 [Imiquimod] | – | – | lowest body weight loss | – | – | – | – | – | fewer signs of disease | – | improved |
